Measurements: US5942489A, “HGH-RH(1-29)NH2 analogues having antagonistic activity” (The Administrators of the Tulane Educational Fund, priority 1996, dated 1999)
Each block holds one compound with its values, some of them ahead of it. Where a SMILES comes first, the peptide text is derived from it. Bridges are numbered along the chain shown (N, C = ends). Where no end group is shown, it is not given here. [ ]: non-standard residue; d: D form. The star is where a group is joined. Phe(4-Cl) = N[C@@H](Cc1ccc(Cl)cc1)C(=O)O; Agmatine = N=C(N)NCCCCN*; Nle = CCCC[C@H](N)C(=O)O; Abu = CC[C@H](N)C(=O)O; PhAc = O=C(Cc1ccccc1)*

Key:
GH releasing activity = details: cited from earlier work; for GH releasing activity relative to GH-RH: percent of that of GH-RH; for bioactivity of shorter analogues: compared with hGH-RH(1-29)NH2
[1] = system: SW-1990 human pancreatic cancers; assay: SW 1990 human pancreatic cancers in nude mice; type: in vivo; details: dose 10, 44 days treatment
Description: Small piees of an SW-1990 rumor growing in a nude mouse were transplated s.c. into the right flanks of 60 nu/nu male nude mice. Ten days after transplantation, 40 mice with well growing tumors were groupled into 4 groups with equal average tumor volume (16 mm^3) in each group. Treatment started 13 days after transplantation and was continuted for 44 days. The tumors were measured and volume was calculated weekly. Tumor volume changes are shown in Table V. On day 45 of treatment the mice were sacraficed under Metofane anesthesia by exsanguination from abdominal aorta. Blood was collected, tumor and organ weights were determined.

[2] = target: T1, rat pituitary GH-RH receptors (Rattus norvegicus, UniProt Q02644); assay: GH-RH radioreceptor binding assay, competition with labelled [His1,Nle27]hGH-RH(1-32)NH2; details: for Ki: rat anterior pituitary membrane homogenates, read-out: Ki values, K
T1 construct: from tissue; host or cells: anterior pituitary of male Sprague-Dawley rats, crude membranes
T1 sequence (Q02644 23-464): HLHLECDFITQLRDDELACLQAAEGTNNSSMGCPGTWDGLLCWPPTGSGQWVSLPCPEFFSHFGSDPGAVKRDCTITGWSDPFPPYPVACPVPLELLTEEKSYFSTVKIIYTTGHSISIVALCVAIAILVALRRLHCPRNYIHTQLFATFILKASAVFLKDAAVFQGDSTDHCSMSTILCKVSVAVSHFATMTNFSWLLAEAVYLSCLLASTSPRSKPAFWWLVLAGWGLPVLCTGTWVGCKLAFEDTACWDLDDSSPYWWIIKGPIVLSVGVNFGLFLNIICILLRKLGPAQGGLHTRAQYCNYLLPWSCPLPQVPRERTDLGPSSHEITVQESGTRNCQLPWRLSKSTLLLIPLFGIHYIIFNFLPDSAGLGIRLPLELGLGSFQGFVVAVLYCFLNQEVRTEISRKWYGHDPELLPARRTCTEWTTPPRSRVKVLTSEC
Description: GH-RH Binding Assay. A sensitive radioreceptor binding assay was developed to determine the binding characteristics of the antagonists of GH-RH (G. Halmos, A. V. Schally et al., Receptor 3, 87-97, 1993), hereby incorporated by reference. The assay is based on binding of labelled [His^1, Nle^27 ]hGH-RH(1-32)NH2 to rat anterior pituitary membrane homogenates. Iodinated derivatives of [His^1, Nle^27 ]hGH-RH(1-32)NH2 are prepared by the chloramine-T method (F. C. Greenwood et al., Biochemistry 89:114-123, 1963), hereby incorporated by reference. Pituitaries from male Sprague-Dawley rats (250-300 g) are used to prepare crude membranes. For saturation binding analyses, membrane homogenates are incubated with at least 6 concentrations of [His^1,125I-Tyr^10,Nle^27 ]hGH-RH(1-32)NH2, ranging from 0.005 to 0.35 nM in the presence or absence of excess unlabelled peptide (1 μM).
The pellet is counted for radioactivity in a γ-counter. The affinities of the antagonist peptides tested to rat pituitary GH-RH receptors are determined in competitive binding experiments. The final binding affinities are estimated by Ki (dissociation constant of the inhibitor-receptor complex) and are determined by the Ligand PC computer program of Munson and Rodbard as modified by McPherson. Relative affinities compared to [Ac-Tyr^1, D-Arg^2 ]hGH-RH(1-29)NH2, the Standard antagonist, are calculated as the ratio of Ki of the tested GH-RH antagonist to the Ki of the Standard antagonist.

[3] = system: GH release induced by 1 nM hGH-RH(1-29)NH2 in superfused rat pituitary cells; assay: Inhibition of hGH-RH(1-29)NH2-induced GH release in superfused rat pituitary system; type: cell-based; details: 100 nM peptide
Description: Superfused Rat Pituitary System. The analogues were tested in vitro in a test described earlier (S. Vigh and A. V. Schally, Peptides 5:241-[…], 1984) with modification (Z. Rekasi and A. V. Schally, P. N. A. S. 90:2146-2149, 1993).
Briefly, the cells are preincubated with peptides for 9 minutes (3 mL) at various concentrations. Immediately after the incubation, 1 nM hGH-RH(1-29)NH2 is administered for 3 minutes (1 mL) [0 minute response]. To check the duration of the antagonistic effect of the analogue, 1 nM hGH-RH(1-29)NH2 is applied 30, 60, 90, and 120 minutes later for 3 minutes [30, 60, 90, 120 min responses]. Net integral values of the GH responses are evaluated. GH responses are compared to and expressed as percent of the original GH response induced by 1 nM GH-RH(1-29)NH2. The effect of the new antagonists are compared to that of [Ac-Tyr^1,D-Arg^2 ]hGH-RH(1-29)NH2, the "Standard antagonist".
Growth Hormone Radio-immunoassay. Rat GH levels in aliquots of undiluted and diluted superfusion samples were measured by double-antibody radioimmunoassay using materials supplied by the National Hormone and Pituitary Program, Baltimore, Md. The results of RIA were analyzed with a computer program developed in our institute (V. Csernus and A. V. Schally, Harwood Academic (Greenstein, B. C. ed., London, pp. 71-109, 1991), hereby incorporated by reference. Inter-assay variation was less than 15% and intra-assay variation was less than 10%.

Compound: [D-Tyr^1 ]GH-RH
GH releasing activity relative to GH-RH (GH releasing activity): 2-3%

Compound: hGH-RH(2-44) (ADAIFTNSYRKVLGQLSARKLLQDIMSRQQGESNQERGARARL; ends and bridges not checked; UniProt P01286 33-75, looked up, fragment) [GH-RH without its N-terminus residue]
GH releasing activity relative to GH-RH (GH releasing activity): 0.1%

Compound: [PhAc^0,D-Arg^2,Phe(pCl)^6,Abu^15,Nle^27 ]hGH-RH(1-28)Agm [Peptide B]
Final Tumor Volume mm^3 [1]: 612 ± 220 mm^3 | Tumor weights [1]: 931 ± 330 mg

Compound: GH-RH(1-27)NH2 (YADAIFTNSYRKVLGQLSARKLLQDIM-NH2; UniProt P01286 32-58, looked up, fragment)
bioactivity of shorter analogues (GH releasing activity): substantially lower bioactivity

Compound: GH-RH(1-28)NH2 (YADAIFTNSYRKVLGQLSARKLLQDIMS-NH2; UniProt P01286 32-59, looked up, fragment)
bioactivity of shorter analogues (GH releasing activity): substantially lower bioactivity

Ki [2]: 0.456 nM
Compound: CCCC[C@H](NC(=O)[C@@H](NC(=O)[C@@H]1CCC(=O)NCCCC[C@H](NC(=O)[C@H](CCCNC(=N)N)NC(=O)[C@H](C)NC(=O)[C@H](CO)NC(=O)[C@H](CC(C)C)NC(=O)[C@H](CCC(N)=O)NC(=O)[C@H](C)NC(=O)[C@H](CC(C)C)NC(=O)[C@@H](NC(=O)[C@H]2CCCCNC(=O)CC[C@H](NC(=O)[C@@H](NC(=O)[C@H](Cc3ccc(Cl)cc3)NC(=O)[C@@H](NC(=O)[C@H](C)NC(=O)[C@H](CC(=O)O)NC(=O)[C@@H](CCCNC(=N)N)NC(=O)[C@H](Cc3ccc(O)cc3)NC(=O)Cc3ccccc3)[C@@H](C)CC)[C@@H](C)O)C(=O)N[C@@H](CO)C(=O)N[C@@H](Cc3ccc(O)cc3)C(=O)N[C@@H](CCCNC(=N)N)C(=O)N2)C(C)C)C(=O)N[C@@H](CC(C)C)C(=O)N[C@@H](CC(C)C)C(=O)N[C@@H](CCC(N)=O)C(=O)N1)[C@@H](C)CC)C(=O)N[C@@H](CO)C(=O)N[C@@H](CCCNC(=N)N)C(N)=O [Peptide 23, cyclo^8,12; 21,25 [[PhAc^0,D-Arg^2,Phe(pCl)^6,Glu^8,25,D-Lys^12,Ala^15,Nle^27]hGH-RH(1-29)-NH2] (PhAc-Y[dR]DAI[Phe(4-Cl)]TESYR[dK]VLAQLSARKLLQEI[Nle]SR-NH2; lactam 8-12, 21-25)

Ki [2]: 3.37 ± 0.14 nM | relative affinities (R.A.) ([2]; relative to Standard antagonist (=1)): 1
Compound: CC[C@H](C)[C@H](NC(=O)[C@H](C)NC(=O)[C@H](CC(=O)O)NC(=O)[C@@H](CCCNC(=N)N)NC(=O)[C@H](Cc1ccc(O)cc1)NC(C)=O)C(=O)N[C@@H](Cc1ccccc1)C(=O)N[C@H](C(=O)N[C@@H](CC(N)=O)C(=O)N[C@@H](CO)C(=O)N[C@@H](Cc1ccc(O)cc1)C(=O)N[C@@H](CCCNC(=N)N)C(=O)N[C@@H](CCCCN)C(=O)N[C@H](C(=O)N[C@@H](CC(C)C)C(=O)NCC(=O)N[C@@H](CCC(N)=O)C(=O)N[C@@H](CC(C)C)C(=O)N[C@@H](CO)C(=O)N[C@@H](C)C(=O)N[C@@H](CCCNC(=N)N)C(=O)N[C@@H](CCCCN)C(=O)N[C@@H](CC(C)C)C(=O)N[C@@H](CC(C)C)C(=O)N[C@@H](CCC(N)=O)C(=O)N[C@@H](CC(=O)O)C(=O)N[C@H](C(=O)N[C@@H](CCSC)C(=O)N[C@@H](CO)C(=O)N[C@@H](CCCNC(=N)N)C(N)=O)[C@@H](C)CC)C(C)C)[C@@H](C)O [Standard antagonist, [Ac-Tyr^1,D-Arg^2]hGH-RH(1-29)NH2] (Ac-Y[dR]DAIFTNSYRKVLGQLSARKLLQDIMSR-NH2)
Inhibition of GH release (%) 0 min ([3]; 0 min response): 62.1% | Inhibition of GH release (%) 30 min ([3]; 30 min response): 2.5% | Inhibition of GH release (%) 60 min ([3]; 60 min response): 19%

Ki [2]: 0.096 nM
Compound: CCCC[C@H](NC(=O)[C@@H](NC(=O)[C@H](CC(=O)O)NC(=O)[C@H](CCC(N)=O)NC(=O)[C@H](CC(C)C)NC(=O)[C@H](CC(C)C)NC(=O)[C@H](CCCCN)NC(=O)[C@H](CCCNC(=N)N)NC(=O)[C@H](C)NC(=O)[C@H](CO)NC(=O)[C@H](CC(C)C)NC(=O)[C@H](CCC(N)=O)NC(=O)[C@H](C)NC(=O)[C@H](CC(C)C)NC(=O)[C@@H](NC(=O)[C@H](CCCCN)NC(=O)[C@H](CCCNC(=N)N)NC(=O)[C@H](Cc1ccc(O)cc1)NC(=O)[C@H](CO)NC(=O)[C@H](CC(N)=O)NC(=O)[C@@H](NC(=O)[C@H](Cc1ccc(Cl)cc1)NC(=O)[C@@H](NC(=O)[C@H](C)NC(=O)[C@H](CC(=O)O)NC(=O)[C@@H](CCCNC(=N)N)NC(=O)[C@H](Cc1ccc(O)cc1)NC(=O)Cc1ccccc1)[C@@H](C)CC)[C@@H](C)O)C(C)C)[C@@H](C)CC)C(=O)N[C@@H](CC(=O)O)C(=O)NCCCCNC(=N)N [Peptide 5, [PhAc^0,D-Arg^2,Phe(pCl)^6,Ala^15,Nle^27,Asp^28]hGH-RH(1-28)Agm] (PhAc-Y[dR]DAI[Phe(4-Cl)]TNSYRKVLAQLSARKLLQDI[Nle]D-Agmatine)

Ki [2]: 0.0159 ± 0.01 nM
Compound: CCCC[C@H](NC(=O)[C@@H](NC(=O)[C@H](CC(=O)O)NC(=O)[C@H](CCC(N)=O)NC(=O)[C@H](CC(C)C)NC(=O)[C@H](CC(C)C)NC(=O)[C@H](CCCCN)NC(=O)[C@H](CCCNC(=N)N)NC(=O)[C@H](C)NC(=O)[C@H](CO)NC(=O)[C@H](CC(C)C)NC(=O)[C@H](CCC(N)=O)NC(=O)[C@H](CC)NC(=O)[C@H](CC(C)C)NC(=O)[C@@H](NC(=O)[C@H](CCCCN)NC(=O)[C@H](CCCNC(=N)N)NC(=O)[C@H](Cc1ccc(O)cc1)NC(=O)[C@H](CO)NC(=O)[C@H](CC(N)=O)NC(=O)[C@@H](NC(=O)[C@H](Cc1ccc(Cl)cc1)NC(=O)[C@@H](NC(=O)[C@H](C)NC(=O)[C@H](CC(=O)O)NC(=O)[C@@H](CCCNC(=N)N)NC(=O)[C@H](Cc1ccc(O)cc1)NC(=O)Cc1ccccc1)[C@@H](C)CC)[C@@H](C)O)C(C)C)[C@@H](C)CC)C(=O)N[C@@H](CO)C(=O)NCCCCNC(=N)N [Peptide 8, [PhAc^0,D-Arg^2,Phe(pCl)^6,Abu^15,Nle^27]hGH-RH(1-28)Agm] (PhAc-Y[dR]DAI[Phe(4-Cl)]TNSYRKVL[Abu]QLSARKLLQDI[Nle]S-Agmatine)

Compound: [Ac-Tyr^1 ]GH-RH (Ac-YADAIFTNSYRKVLGQLSARKLLQDIMSRQQGESNQERGARARL; ends and bridges not checked; UniProt P01286 32-75, looked up)
GH releasing activity relative to GH-RH (GH releasing activity): 2-3%
